Read-outs that look alike come from different tables or passages of the source.
How the values were obtained:
Experiment in all cases: selectivity profiling in a panel of 340 wild-type kinases (Reaction Biology Europe)
Assay type in all cases: binding
[1] = target: T1, 340 wild-type kinases (Homo sapiens, UniProt O43318)
T1 construct: purchased Reaction Biology Europe
T1 sequence (O43318 1-606): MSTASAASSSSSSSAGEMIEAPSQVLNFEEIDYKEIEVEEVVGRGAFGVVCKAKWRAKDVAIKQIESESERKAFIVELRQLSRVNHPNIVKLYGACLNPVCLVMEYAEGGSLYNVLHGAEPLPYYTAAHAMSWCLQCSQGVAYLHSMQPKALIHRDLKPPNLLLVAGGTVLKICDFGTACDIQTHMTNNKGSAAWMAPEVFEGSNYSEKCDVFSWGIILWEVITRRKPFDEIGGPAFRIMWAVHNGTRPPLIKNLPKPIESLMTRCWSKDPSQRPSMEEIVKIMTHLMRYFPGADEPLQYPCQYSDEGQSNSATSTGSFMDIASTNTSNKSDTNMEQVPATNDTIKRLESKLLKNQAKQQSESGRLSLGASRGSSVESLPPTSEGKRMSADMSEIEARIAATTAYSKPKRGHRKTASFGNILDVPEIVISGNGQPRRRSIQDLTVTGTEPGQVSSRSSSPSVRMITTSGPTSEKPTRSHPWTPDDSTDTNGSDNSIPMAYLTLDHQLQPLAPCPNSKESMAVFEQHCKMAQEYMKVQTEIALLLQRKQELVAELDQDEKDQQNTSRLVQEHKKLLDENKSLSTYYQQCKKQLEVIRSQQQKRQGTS

[2] = target: T2, 340 wild-type kinases (Homo sapiens, UniProt P07333)
T2 construct: purchased Reaction Biology Europe
T2 sequence (P07333 20-972): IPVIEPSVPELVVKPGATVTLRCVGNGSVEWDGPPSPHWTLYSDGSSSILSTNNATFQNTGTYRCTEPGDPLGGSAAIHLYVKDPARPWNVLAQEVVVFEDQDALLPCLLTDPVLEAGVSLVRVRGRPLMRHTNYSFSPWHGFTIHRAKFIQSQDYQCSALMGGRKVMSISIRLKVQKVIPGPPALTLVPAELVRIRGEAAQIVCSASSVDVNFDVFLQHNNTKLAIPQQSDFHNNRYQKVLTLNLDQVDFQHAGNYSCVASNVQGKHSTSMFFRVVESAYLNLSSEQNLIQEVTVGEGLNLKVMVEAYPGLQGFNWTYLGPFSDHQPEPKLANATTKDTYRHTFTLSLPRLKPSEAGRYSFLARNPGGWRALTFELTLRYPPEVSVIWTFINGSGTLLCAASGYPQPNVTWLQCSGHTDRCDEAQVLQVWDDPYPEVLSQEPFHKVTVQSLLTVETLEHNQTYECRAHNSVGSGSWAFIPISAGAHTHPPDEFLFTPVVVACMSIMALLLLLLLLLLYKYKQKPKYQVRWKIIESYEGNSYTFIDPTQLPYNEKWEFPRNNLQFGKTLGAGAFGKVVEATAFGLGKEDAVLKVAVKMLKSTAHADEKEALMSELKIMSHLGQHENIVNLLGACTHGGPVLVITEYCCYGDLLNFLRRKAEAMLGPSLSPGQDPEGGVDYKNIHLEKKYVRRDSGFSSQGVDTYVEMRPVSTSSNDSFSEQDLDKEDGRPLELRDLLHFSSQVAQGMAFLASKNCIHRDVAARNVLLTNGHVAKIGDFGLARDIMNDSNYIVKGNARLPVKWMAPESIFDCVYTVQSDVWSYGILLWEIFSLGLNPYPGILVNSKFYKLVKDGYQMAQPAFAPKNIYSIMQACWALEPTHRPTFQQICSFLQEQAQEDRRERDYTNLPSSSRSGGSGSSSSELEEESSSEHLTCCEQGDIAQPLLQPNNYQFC

[3] = target: T3, 340 wild-type kinases (Homo sapiens, UniProt P08069)
T3 construct: purchased Reaction Biology Europe
T3 sequence (P08069 31-1367): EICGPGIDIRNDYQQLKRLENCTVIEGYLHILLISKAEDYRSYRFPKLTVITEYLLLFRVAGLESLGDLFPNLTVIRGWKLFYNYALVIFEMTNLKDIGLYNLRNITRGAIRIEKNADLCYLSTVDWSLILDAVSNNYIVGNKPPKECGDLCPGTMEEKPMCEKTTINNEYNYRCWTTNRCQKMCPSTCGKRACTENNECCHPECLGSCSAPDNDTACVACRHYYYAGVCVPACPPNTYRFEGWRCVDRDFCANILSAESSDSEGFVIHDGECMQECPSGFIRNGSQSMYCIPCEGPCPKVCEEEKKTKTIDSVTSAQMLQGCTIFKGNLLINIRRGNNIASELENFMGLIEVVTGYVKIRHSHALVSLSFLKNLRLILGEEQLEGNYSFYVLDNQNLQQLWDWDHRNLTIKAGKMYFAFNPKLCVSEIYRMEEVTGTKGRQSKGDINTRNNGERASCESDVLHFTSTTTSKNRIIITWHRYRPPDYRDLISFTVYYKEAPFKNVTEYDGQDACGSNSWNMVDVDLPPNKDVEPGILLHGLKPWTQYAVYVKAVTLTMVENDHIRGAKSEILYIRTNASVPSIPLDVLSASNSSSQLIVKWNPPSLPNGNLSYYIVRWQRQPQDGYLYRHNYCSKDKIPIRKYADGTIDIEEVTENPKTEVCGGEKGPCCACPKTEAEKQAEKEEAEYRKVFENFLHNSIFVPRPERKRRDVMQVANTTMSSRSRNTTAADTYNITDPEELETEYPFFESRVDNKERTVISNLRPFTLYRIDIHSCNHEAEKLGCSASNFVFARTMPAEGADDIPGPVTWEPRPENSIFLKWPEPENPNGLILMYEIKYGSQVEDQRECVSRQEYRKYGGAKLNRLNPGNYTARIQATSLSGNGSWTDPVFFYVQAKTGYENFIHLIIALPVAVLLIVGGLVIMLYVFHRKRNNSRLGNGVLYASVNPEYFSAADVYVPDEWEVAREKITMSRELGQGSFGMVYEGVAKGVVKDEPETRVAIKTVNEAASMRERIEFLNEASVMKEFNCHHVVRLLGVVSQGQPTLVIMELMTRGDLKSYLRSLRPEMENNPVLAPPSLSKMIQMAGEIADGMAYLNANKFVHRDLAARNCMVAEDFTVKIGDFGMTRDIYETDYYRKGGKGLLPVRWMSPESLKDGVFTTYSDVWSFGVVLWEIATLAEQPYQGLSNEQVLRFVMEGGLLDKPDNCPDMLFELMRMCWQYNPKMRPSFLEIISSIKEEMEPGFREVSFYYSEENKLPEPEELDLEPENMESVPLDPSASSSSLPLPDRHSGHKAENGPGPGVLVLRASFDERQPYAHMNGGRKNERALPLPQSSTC

[4] = target: T4, 340 wild-type kinases (Homo sapiens, UniProt Q13976)
T4 construct: purchased Reaction Biology Europe
T4 sequence (Q13976 1-671): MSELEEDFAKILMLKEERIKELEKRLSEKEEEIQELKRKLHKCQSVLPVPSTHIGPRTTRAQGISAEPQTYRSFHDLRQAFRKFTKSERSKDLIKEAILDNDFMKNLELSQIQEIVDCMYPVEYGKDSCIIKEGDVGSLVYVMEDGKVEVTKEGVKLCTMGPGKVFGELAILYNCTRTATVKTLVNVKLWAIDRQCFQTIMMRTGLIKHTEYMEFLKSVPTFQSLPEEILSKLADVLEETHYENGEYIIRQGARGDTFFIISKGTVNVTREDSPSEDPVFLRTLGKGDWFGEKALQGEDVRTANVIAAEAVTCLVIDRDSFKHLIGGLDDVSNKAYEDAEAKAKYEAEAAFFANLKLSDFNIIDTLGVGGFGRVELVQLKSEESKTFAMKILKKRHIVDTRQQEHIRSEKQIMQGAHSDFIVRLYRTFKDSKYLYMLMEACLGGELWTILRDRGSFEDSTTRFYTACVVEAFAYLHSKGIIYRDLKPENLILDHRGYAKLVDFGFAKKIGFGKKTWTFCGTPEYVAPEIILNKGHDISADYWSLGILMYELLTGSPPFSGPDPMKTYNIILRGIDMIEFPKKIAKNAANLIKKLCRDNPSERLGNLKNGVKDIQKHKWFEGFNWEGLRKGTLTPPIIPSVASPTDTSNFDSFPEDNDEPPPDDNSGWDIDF

[5] = target: T5, 340 wild-type kinases (Homo sapiens, UniProt Q16566)
T5 construct: purchased Reaction Biology Europe
T5 sequence (Q16566 1-473): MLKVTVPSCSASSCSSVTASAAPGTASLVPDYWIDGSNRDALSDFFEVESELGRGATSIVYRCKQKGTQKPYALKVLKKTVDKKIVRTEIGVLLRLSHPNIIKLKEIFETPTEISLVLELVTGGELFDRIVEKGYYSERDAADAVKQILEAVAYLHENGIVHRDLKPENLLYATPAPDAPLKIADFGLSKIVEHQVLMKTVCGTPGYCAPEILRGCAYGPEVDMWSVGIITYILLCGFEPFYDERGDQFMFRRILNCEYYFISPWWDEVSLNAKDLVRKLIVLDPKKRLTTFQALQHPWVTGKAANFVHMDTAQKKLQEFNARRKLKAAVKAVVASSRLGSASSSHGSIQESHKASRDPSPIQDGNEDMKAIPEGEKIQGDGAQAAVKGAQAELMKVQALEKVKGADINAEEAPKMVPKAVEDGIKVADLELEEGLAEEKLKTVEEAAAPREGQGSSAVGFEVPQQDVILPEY

With CNC(=O)c1ccc2c(c1)C(=O)c1ccc(Nc3ccc(F)c(NC(=O)C4CC4)c3)cc1CC2 [Compound 2015] as the molecule, how does the remaining activity at 0.2 µM ([1]; 0.2 µM 2015, read-out: MAP3K7/MAP3K7IP1 residual activity) read?
Its remaining activity at 0.2 µM is 96.8%.

And the remaining activity at 1 µM ([1]; 1 µM 2015, read-out: MAP3K7/MAP3K7IP1 residual activity)?
Its remaining activity at 1 µM is 93.9%.

What about the remaining activity at 1 µM ([1]; MAP3K7/MAP3K7IP1, 1 µM, read-out: residual activity) of the same molecule?
The remaining activity at 1 µM was 93.9%.

What about the remaining activity at 0.2 µM ([2]; 0.2 µM 2015, read-out: CSF1R residual activity) of the same molecule?
Its remaining activity at 0.2 µM is 97.2%.

What about the remaining activity at 1 µM ([2]; 1 µM 2015, read-out: CSF1R residual activity) of the same molecule?
The remaining activity at 1 µM was 84%.

What about the remaining activity at 0.2 µM ([2]; CSF1R, 0.2 µM, read-out: residual activity) of the same molecule?
Its remaining activity at 0.2 µM is 97.2%.

What about the remaining activity at 1 µM ([2]; CSF1R, 1 µM, read-out: residual activity) of the same molecule?
The remaining activity at 1 µM was 84%.

And the remaining activity at 0.2 µM ([3]; 0.2 µM 2015, read-out: IGF1R residual activity)?
Its remaining activity at 0.2 µM is 109%.

And the remaining activity at 1 µM ([3]; 1 µM 2015, read-out: IGF1R residual activity)?
The remaining activity at 1 µM was 97.4%.

What about the remaining activity at 0.2 µM ([3]; IGF1R, 0.2 µM, read-out: residual activity) of the same molecule?
The remaining activity at 0.2 µM was 109%.

What about the remaining activity at 1 µM ([3]; IGF1R, 1 µM, read-out: residual activity) of the same molecule?
The remaining activity at 1 µM was 97.4%.

And the remaining activity at 0.2 µM ([4]; 0.2 µM 2015, read-out: PRKG1 residual activity)?
Its remaining activity at 0.2 µM is 106%.

What about the remaining activity at 1 µM ([4]; 1 µM 2015, read-out: PRKG1 residual activity) of the same molecule?
The remaining activity at 1 µM was 104%.

And the remaining activity at 0.2 µM ([4]; PRKG1, 0.2 µM, read-out: residual activity)?
The remaining activity at 0.2 µM was 106%.

What about the remaining activity at 1 µM ([4]; PRKG1, 1 µM, read-out: residual activity) of the same molecule?
The remaining activity at 1 µM was 104%.

And the remaining activity at 0.2 µM ([5]; 0.2 µM 2015, read-out: CAMK4 residual activity)?
The remaining activity at 0.2 µM was 92.7%.

What about the remaining activity at 1 µM ([5]; 1 µM 2015, read-out: CAMK4 residual activity) of the same molecule?
The remaining activity at 1 µM was 94.1%.

And the remaining activity at 0.2 µM ([5]; CAMK4, 0.2 µM, read-out: residual activity)?
Its remaining activity at 0.2 µM is 92.7%.

And the remaining activity at 1 µM ([5]; CAMK4, 1 µM, read-out: residual activity)?
Its remaining activity at 1 µM is 94.2%.
